# Test results: PMC9501280, “Anti-Inflammatory Activity of Soluble Epoxide Hydrolase Inhibitors Based on Selenoureas Bearing an Adamantane Moiety” (International Journal of Molecular Sciences, 2022)
# Read-outs that look alike come from different tables or passages of the source.
# Legend:
# [1] = Solubility in sodium phosphate buffer; type: physicochemical; conditions: aqueous buffer, kinetic from dmso stock; sodium phosphate buffer (pH 7.4, 0.1 M) containing 1% DMSO
# Description: To our knowledge, no systematic studies of selenoureas as sEH inhibitors have been performed previously. The potency of the compounds was determined against the human recombinant sEH and their solubility assessed in phosphate-buffered saline (Table 1).
# human recombinant sEH = target: T1, human recombinant sEH (Homo sapiens, UniProt P34913); test: Human sEH inhibition, kinetic fluorescent assay; type: biochemical; conditions: kinetic fluorescent assay; means of three separate experiments; read-out: Human sEH IC50
# T1 sequence (P34913 1-555): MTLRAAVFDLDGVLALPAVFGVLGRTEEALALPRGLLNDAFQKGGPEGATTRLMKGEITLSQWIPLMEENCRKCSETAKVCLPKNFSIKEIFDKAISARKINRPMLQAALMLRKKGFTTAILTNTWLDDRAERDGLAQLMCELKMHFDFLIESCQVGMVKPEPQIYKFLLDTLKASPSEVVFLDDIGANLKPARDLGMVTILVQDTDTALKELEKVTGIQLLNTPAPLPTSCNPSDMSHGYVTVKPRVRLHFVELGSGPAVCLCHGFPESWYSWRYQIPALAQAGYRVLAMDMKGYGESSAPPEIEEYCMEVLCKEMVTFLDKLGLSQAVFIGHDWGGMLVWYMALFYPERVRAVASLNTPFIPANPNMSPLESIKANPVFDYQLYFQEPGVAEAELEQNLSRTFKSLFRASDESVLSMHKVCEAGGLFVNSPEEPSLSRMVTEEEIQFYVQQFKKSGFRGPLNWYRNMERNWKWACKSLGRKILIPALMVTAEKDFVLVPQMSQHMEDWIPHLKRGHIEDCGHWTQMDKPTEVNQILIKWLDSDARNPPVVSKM
# [2] = tested on: human fibroblast cells (MRC-5); test: MTT test with human fibroblast cells; type: cell-based; conditions: read-out: EC50 ± SEM, MRC-5
# Description: The studied compounds were added in concentrations of 1, 3, 6, 12, 25, 50, and 100 μM.
# Human fibroblast cells (MRC-5) were used in this study. The cells were cultured in the DMEM medium that contained 10% embryonic calf serum in a CO2 incubator at 37 °C. The tested compounds were dissolved in DMSO and added to the cellular culture at the required concentrations. Three wells were used for each concentration. The cells that were incubated without the compounds were used as a negative control, and doxorubicin was used as the positive one. Cells were placed on 96-well microliter plates and cultivated at 37 °C in 5% CO2/95% air for 72 h. The cell viability was assessed through an MTT (3-(4,5-dimethylthiazol-2-yl)-2,5-phenyl-2H-tetrazolium bromide) conversion assay. A total of 1% MTT was added to each well. Three hours later, isopropanol was added and mixed for 15 min. Optical density (OD) of the samples was measured on a ThermoFischer multi-well spectrophotometer at a wavelength of 450 nm. […] The experimental results are given as average values obtained from three independently conducted experiments.
# [3] = MTT cytotoxicity on peritoneal macrophages; type: cell-based, mice; conditions: male, C57bl/6j, mouse, 24 h incubation, read-out: MTT CC50 ± SE
# Description: (§1) Peritoneal macrophages (PM) were isolated from the peritoneal exudate of 30 male C57bl/6j mice. To accumulate PM, 1 mL of 3% peptone solution was injected intraperitoneally. After 3 days, the mice were euthanized by cervical dislocation. Cells of peritoneal exudate were obtained by aseptic washing of the abdominal cavity with 5 mL of sterile Hanks’s solution (+4–6 °C) without calcium and magnesium ions. The total number and viability of cells were assessed in a Goryaev counting chamber (Russia) with a 0.4% trypan blue staining (Sigma-Aldrich, St. Louis, MO, USA). The cell concentration was adjusted to 1.0 × 10^6 cells/mL in DMEM (Gibco) supplemented with 2 mM L-glutamine (Gibco), 10% heat-inactivated fetal bovine serum (BioClot, Passau, Germany), 100 U/mL penicillin and […] streptomycin (Gibco) and plated 200 μL/well in 96-well transparent plates (SPL Life Sciences Co., Ltd., Pochon, Korea). After 2 h at 37 °C in a humidified atmosphere with 5% CO2, wells were washed to remove nonadherent cells. After 24 h of incubation, 20 μL of the supernatants were substituted with 20 μL of solutions of the test compounds, followed with E. coli O127:B8 LPS (100 ng/mL final concentration) after 30 min. Experiments were run in 3 independent replicates.
# (§2) The activity of lactate dehydrogenase (LDH) in a cell culture medium served as a marker of membrane permeability and cell death. Aliquots of supernatants were taken after 24 h of inoculation with test compounds, mixed with 250 μL of […] NADH solution in 54 mM phosphate-buffered saline (pH 7.5). Then, 25 μL of a 6.48 mM pyruvate solution was added to the mixture. The optical density was followed at a wavelength of 340 nm for 20 min. The MTT test was performed 24 h after the incubation of cells with the tested compounds. Briefly, 20 μL of MTT solution was added to each well and incubated at 37 °C in a humidified atmosphere containing 5% CO2 for 4 h. The culture medium was aspirated, the cells were lysed and formazan crystals dissolved in 150 μL of DMSO. The plates were shaken at room temperature for 10 min, and the optical density was measured in a microplate reader Infinite M200 PRO (Tecan Group Ltd., Männedorf, Switzerland) at a wavelength of 565 nm.
# [4] = tested on: C57bl/6j peritoneal macrophages; test: MTT cytotoxicity on peritoneal macrophages; type: cell-based, mice; conditions: Mus musculus, Peritoneal macrophage, read-out: EC50 ± SEM, C57bl/6j
# Description: as §1, §2
# [5] = LDH release cytotoxicity on peritoneal macrophages; type: cell-based, mice; conditions: male, C57bl/6j, mouse, 24 h incubation, read-out: LDH CC50 ± SE
# Description: as §1
# as §2, with “Briefly, 20 μL of MTT solution was added to each well and incubated at 37 °C in a humidified atmosphere containing 5% CO2 for 4 h. The culture medium was aspirated, the cells were lysed and formazan crystals dissolved in 150 μL of DMSO.” left out
# [6] = tested on: LPS-stimulated C57bl/6j peritoneal macrophages; test: Suppression of NO synthesis in LPS-stimulated peritoneal macrophages (Griess); type: cell-based, mice; conditions: for IC50: Mus musculus, Peritoneal macrophage, read-out: NO Synthesis, IC50 ± SE
# Source text: For screening designed compounds according to their probable ability to limit inflammation, we used a test on the inhibition of LPS-induced activation of primary murine macrophages. The most prominent anti-inflammatory activity, defined as the suppression of nitric oxide synthesis by LPS-stimulated macrophages, was evident for compounds 4a and 5b. At the same time, for 4a, the cytotoxic concentration was 4.7–18.4 times higher than the effective anti-inflammatory concentration. […] According to the data obtained, there is no direct correlation between the efficiency of the inhibition of sEH and NO synthesis, which requires further studies of the anti-inflammatory activity of the investigated compounds.
# as §1
# The accumulation of nitrite anion (a stable decomposition product of NO produced by iNOS) in the supernatants was determined using a standard Griess reagent. Briefly, 50 μL of supernatants collected 22 h after incubation of PM with the test and control compounds were mixed with 50 μL of 1% sulfonamide in 2.5% H3PO4 and 50 μL of 0.1% N-(1-naphthyl) ethylenediamine in 2.5% H3PO4. After incubation at 23 °C for 10 min. in an orbital shaker, the optical density was determined at a wavelength of 550 nm with a microplate reader Infinite M200 PRO (Tecan, Austria).
# E. coli PQ37 = test: SOS chromotest; type: cell-based; conditions: induction factor
# Description: For the final safety check of selenoureas, the SOS chromotest was carried out. […] The results are presented as the mean value of induction factor I (c) ± SEM based on the results of three independent experiments, each of which included three replicates (Table 5).
# The SOS chromotest was carried out according to the standard procedure, with recommended additions. The E. coli PQ37 strain was provided by P. Quillardet (Paris, France). The test compounds were dissolved in dimethyl sulfoxide (DMSO) (also used as a negative control) and added to the bacterial medium in the required concentrations; the concentration of the injected solutions was 1% by volume.
SMILES,solubility [1],IC50 (human recombinant sEH),melting point,also measured
"CC(=O)N1CCC(NC(=O)NC23CC4CC(CC(C4)C2)C3)CC1 [compound 1153, reference compound]",970 ± 60 µM,,,
"[Se]=C(NCc1ccccc1)Nc1ccc(C23CC4CC(CC(C4)C2)C3)cc1 [5e, 1-[4-(Adamantan-1-yl)phenyl]-3-benzylselenourea]",200 ± 20 µM,204 nM,147 to 148 °C,
"COc1cccc2c1C(=O)c1c(O)c3c(c(O)c1C2=O)C[C@@](O)(C(=O)CO)C[C@@H]3O[C@H]1C[C@H](N)[C@H](O)[C@H](C)O1 [doxorubicin, reference compound]",,,,"EC50 ([2]; MRC5, MTT, 72 h): 2410 ± 150 nM"
"C[C@@H]1C[C@H]2[C@@H]3CCC4=CC(=O)C=C[C@]4(C)[C@@]3(F)[C@@H](O)C[C@]2(C)[C@@]1(O)C(=O)CO [Dexamethasone, reference compound]",,,,"CC50 at 24 h ([3]; primary peritoneal macrophages): > 100000 nM; EC50 ([4]; MTT, peritoneal macrophages of C57bl/6j mice): > 100000 nM; CC50 at 24 h ([5]; primary peritoneal macrophages): > 100000 nM; IC50 ([6]; LPS 100 ng/mL, supernatants after 22 h): 3 ± 1 nM"
"CC12CC3CC(C)(C1)CC(NC(=[Se])NCc1ccccc1)(C3)C2 [5f, 1-(3,5-Dimethyladamantan-1-yl)-3-benzylselenourea]",,48.5 nM,112 to 113 °C,
"[Se]=C(NCc1ccccc1)NCC12CC3CC(CC(C3)C1)C2 [5b, 1-[(Adamantan-1-yl)methyl]-3-benzylselenourea]",,200 nM,158 to 159 °C,"CC50 at 24 h [3]: 17700 ± 5700 nM; EC50 [4]: 17700 ± 5660 nM; CC50 at 24 h [5]: 20400 ± 5300 nM; cytotoxic concentration versus effective anti-inflammatory concentration ([6]; CC50 (MTT, LDH) over NO synthesis IC50, peritoneal macrophages): comparable; IC50 ([6]; 22 h): 27800 ± 5200 nM; EC50 ([2]; MRC5, 72 h): 3040 ± 660 nM; I(c) ± SE, 10 µM (E. coli PQ37; compound 10 µM): 1.12 ± 0.18; I(c) ± SE, 25 µM (E. coli PQ37; compound 25 µM): 0.95 ± 0.13; I(c) ± SE, 50 µM (E. coli PQ37; compound 50 µM): 0.99 ± 0.11; I(c) ± SE, 100 µM (E. coli PQ37; compound 100 µM): 0.97 ± 0.08"
"[Se]=C(NCCC12CC3CC(CC(C3)C1)C2)NCc1ccccc1 [5d, 1-[2-(Adamantan-1-yl)ethyl]-3-benzylselenourea]",140 ± 20 µM,34.3 nM,142 to 143 °C,
"CC(NC(=[Se])NCc1ccccc1)C12CC3CC(CC(C3)C1)C2 (centres unmarked) [5c, 1-[1-(Adamantan-1-yl)ethyl]-3-benzylselenourea]",110 ± 20 µM,274 nM,154 to 155 °C,
"[Se]=C(NCc1ccccc1)NC1C2CC3CC(C2)CC1C3 (centres unmarked) [5g, 1-(Adamantan-2-yl)-3-benzylselenourea]",110 ± 10 µM,120 nM,139 to 140 °C,
